This note sets out measurements from US20010008892A1 (priority 1998, published 2001).

Molecules are shown by their SMILES. Where two headings read alike, the source gives them in different places.

A word on the EC50: it is the concentration needed to bring the measured effect to its halfway point.

In one series the target is HIV-1 protease (Human immunodeficiency virus type 1 group M subtype B, UniProt P04585). Put plainly: Fluorogenic assay for screening inhibitors of HIV protease. The settings on record: for inhibition at 0.0005 µM: pH 4.5, read-out: % Inhib. (0.5 nM); for % Inhib. (0.5 nM): compound concentration 0.5 nM, fluorogenic substrate 1.3 μM, pH 4.5, 30° C.
The test system of a further series is HIV. Put plainly: Antiviral activity: inhibition of the cytopathic effect of HIV in MT4 cells. It counts as cell-based. From the text:
(§1) The IC50 is the concentration of compound that gives 50% inhibition of the cytopathic effect of HIV. The LC50 is the concentration of compound at which 50% of the cells remain viable.
(In general: Cytopathic effects are the visible damage that an infection or toxin causes in cultured cells.)

A short description of series [1]: Cytotoxicity in MT4 cells (LC50, 50% of the cells remain viable). It counts as cell-based. The settings on record: human.
Source text: as §1

For another series, the system named is MT4 cells. The series is described as above. It counts as cell-based. The settings on record: MT4 cells; concentration at which 50% of the cells remain viable.
Source text: as §1

[2] abbreviates: Human immunodeficiency virus 1, MT4 cells, 50% inhibition of the cytopathic effect of HIV, read-out: EC50.
Setting [3] is: MT4 cells, 50% inhibition of the cytopathic effect of HIV, read-out: EC50.

Protocol for HIV-1 protease: A compound of the invention is dissolved in DMSO. A small aliquot is diluted with DMSO to 100 times the final concentration desired for testing. The test is carried out in a 6×50 mm tube in a total volume of 300 microliters. The final concentrations of the components in the reaction buffer are: 125 mM sodium acetate, 1 M sodium chloride, 5 mM dithiothreitol, 0.5 mg/ml bovine serum albumin, 1.3 μM fluorogenic substrate, 2% (v/v) dimethylsulfoxide, pH 4.5. After addition of inhibitor, the reaction mixture is placed in the fluorometer cell holder and incubated at 30° C. for several minutes. The reaction is initiated by the addition of a small aliquot of cold HIV protease. The fluorescence intensity (excitation 340 nm, emmision 490 nM) is recorded as a function of time. The reaction rate is determined for the first six to eight minutes. The observed rate is directly proportional to the moles of substrate cleaved per unit time. The percent inhibition is 100×(1- (rate in presence of inhibitor)/(rate in absence of inhibitor)).
The test compounds were then tested at a concentration of 0.5 nM.

For `CC(C)c1nc(CN(C)C(=O)N[C@H](C(=O)N[C@@H](Cc2ccccc2)[C@H](O)CN2CCN(Cc3cncs3)C[C@H]2C(=O)NC(C)(C)C)C(C)C)cs1` [Example 12, N′-[(1S)-1-[[[(1S,2R)-3-[(2S)-2-[[(1,1-Dimethylethyl)amino]carbonyl]-4-(5-thiazolylmethyl)-1-piperazinyl]-2-hydroxy-1-(phenylmethyl)propyl]amino]carbonyl]-2-methylpropyl]-N-methyl-N-[2-(1-methylethyl)-4-thiazolylmethyl]urea], at HIV-1 protease, the inhibition at 0.0005 µM is 61%. In addition, the EC50 in the series with HIV (setting [2]) was determined as 13 nM. In addition, the CC50 in series [1] came to 70300 nM.
Turning to `CC(C)c1nc(CN(C)C(=O)N[C@H](C(=O)N[C@@H](Cc2ccccc2)[C@H](O)CN2CCN(Cc3ccccc3)C[C@H]2C(=O)NC(C)(C)C)C(C)C)cs1` [Example 13, N′-[(1S)-1-[[[(1S,2R)-3-[(2S)-2-[[(1,1-Dimethylethyl)amino]carbonyl]-4-(phenylmethyl)-1-piperazinyl]-2-hydroxy-1-(phenylmethyl)propyl]amino]carbonyl]-2-methylpropyl]-N-methyl-N-[2-(1-methylethyl)-4-thiazolylmethyl]urea], the inhibition at 0.0005 µM at HIV-1 protease came out at 66%. Besides, the EC50 with HIV (setting [2]) amounted to 48 nM. Further, in series [1], the CC50 was 60400 nM.
For the compound `COc1cc(CN2CCN(C[C@@H](O)[C@H](Cc3ccccc3)NC(=O)[C@@H](NC(=O)N(C)Cc3csc(C(C)C)n3)C(C)C)[C@H](C(=O)NC(C)(C)C)C2)ccc1O` [Example 14, N′-[(1S)-1-[[[(1S,2R)-3-[(2S)-2-[[(1,1-Dimethylethyl)amino]carbonyl]-4-[(4-hydroxy-3-methoxyphenyl)methyl]-1-piperazinyl]-2-hydroxy-1-(phenylmethyl)propyl]amino]carbonyl]-2-methylpropyl]-N-methyl-N-[2-(1-methylethyl)-4-thiazolylmethyl]urea], at HIV-1 protease, the inhibition at 0.0005 µM amounted to 63%. For the same compound, the EC50 with HIV (setting [2]) came to 41 nM. In series [1], this compound had a CC50 of 22700 nM.
For the compound `COc1ccc(CN2CCN(C[C@@H](O)[C@H](Cc3ccccc3)NC(=O)[C@@H](NC(=O)OCc3cnc(C(C)C)s3)C(C)C)[C@H](C(=O)NC(C)(C)C)C2)cc1OC` [Example 19, 2-(1-Methylethyl)-5-thiazolylmethyl-[(1S)-1-[[[(1S,2R)-3-[(2S)-4-[(3,4-dimethoxylphenyl)methyl]-2-[[(1,1-dimethylethyl)amino]carbonyl]-1-piperazinyl]-2-hydroxy-1-(phenylmethyl)propyl]amino]carbonyl]-2-methylpropyl]carbamate], the “% Inhib. (0.5 nM)” value at HIV-1 protease came to 51%. Moreover, the EC50 with HIV (setting [3]) came to 17 nM. In the series on MT4 cells, this compound gave a CC50 of 20700 nM.
The like results for `CCc1ncc(COC(=O)N[C@H](C(=O)N[C@@H](Cc2ccccc2)[C@H](O)CN2CCN(Cc3ccc(OC)c(OC)c3)C[C@H]2C(=O)NC(C)(C)C)C(C)C)s1` [Example 20] were, in that order, 37%, 16 nM and 49700 nM.
The like results for `COc1ccc(CN2CCN(C[C@@H](O)[C@H](Cc3ccccc3)NC(=O)[C@@H](NC(=O)OCc3cnc(C)s3)C(C)C)[C@H](C(=O)NC(C)(C)C)C2)cc1OC` [Example 21, 2-Methyl-5-thiazolylmethyl-[(1S)-1-[[[(1S,2R)-3-[(2S)-4-[(3,4-dimethoxylphenyl)methyl]-2-[[(1,1-dimethylethyl)amino]carbonyl]-1-piperazinyl]-2-hydroxy-1-(phenylmethyl)propyl]amino]carbonyl]-2-methylpropyl]carbamate] were, in that order, 44%, 11 nM and 53000 nM.
In the case of `CC(C)[C@H](NC(=O)N(C)Cc1cncs1)C(=O)N[C@@H](Cc1ccccc1)[C@H](O)CN1CCN(Cc2cncs2)C[C@H]1C(=O)NC(C)(C)C` [Example 23, N′-[(1S)-1-[[[(1S,2R)-3-[(2S)-2-[[(1,1-Dimethylethyl)amino]carbonyl]-4-(5-thiazolylmethyl)-1-piperazinyl]-2-hydroxy-1-(phenylmethyl)propyl]amino]carbonyl]-2-methylpropyl]-N-methyl-N-(5-thiazolylmethyl)urea], the inhibition at 0.0005 µM on HIV-1 protease was 51%. The EC50 in the series with HIV (setting [2]) worked out at 259 nM. In series [1], this compound gave a CC50 greater than 100000 nM.
Regarding `CC(C)[C@H](NC(=O)OCc1cncs1)C(=O)N[C@@H](Cc1ccccc1)[C@H](O)CN1CCN(Cc2cncs2)C[C@H]1C(=O)NC(C)(C)C` [Example 25], the “% Inhib. (0.5 nM)” value on HIV-1 protease came to 45%. In the series on HIV (setting [3]), the EC50 was found to be 57 nM. The compound also had a CC50 in the series on MT4 cells greater than 100000 nM.
As for `CC(C)CN(C[C@@H](O)[C@H](Cc1ccccc1)NC(=O)[C@@H](NC(=O)N(C)Cc1csc(C(C)C)n1)C(C)C)C(=O)NC(C)(C)C` [Example 26], the inhibition at 0.0005 µM at HIV-1 protease is 42%. In addition, a half-maximal response with HIV (Human immunodeficiency virus 1, MT4) (EC50) required 817 nM. For the same compound, in series [1] (MT4 cells, concentration at which 50% of the cells remain viable, read-out: LC50 (the source's name)), the CC50 turned out to be 17400 nM.
Turning to `CC(C)c1nc(CN(C)C(=O)N[C@H](C(=O)N[C@@H](Cc2ccccc2)[C@H](O)CN(C(C)C)S(=O)(=O)c2ccc(N)cc2)C(C)C)cs1` [Example 29, N′-[(1S)-1-[[[(1S,2R)-3-[[(4-Aminophenyl)sulfonyl](1-methylethyl)amino]-2-hydroxy-1-(phenylmethyl)propyl]amino]carbonyl]-2-methylpropyl]-N-methyl-N-[2-(1-methylethyl)-4-thiazolylmethyl]urea], at HIV-1 protease, the inhibition at 0.0005 µM came to 64%. Further, the EC50 in the series with HIV (setting [2]) came out at 175 nM. The compound further registered a CC50 in series [1] of 31200 nM.
With `CC(C)c1ncc(COC(=O)N[C@H](C(=O)N[C@@H](Cc2ccccc2)[C@H](O)CN2C[C@H]3CCCC[C@H]3C[C@H]2C(=O)NC(C)(C)C)C(C)C)s1` [Example 30, 2-(1-Methylethyl)-5-thiazolylmethyl-[(1S)-1-[[[(1S,2R)-3-[(3S)-3-[[(1,1-dimethylethyl)amino]carbonyl](4aα,8aα)octahydro-2-isoquinolinyl]-2-hydroxy-1-(phenylmethyl)propyl]amino]carbonyl]-2-methylpropyl]carbamate], the “% Inhib. (0.5 nM)” value on HIV-1 protease is 55%. Moreover, the EC50 in the series on HIV (setting [3]) was determined as 20 nM. The CC50 with MT4 cells turned out to be 17900 nM.
The corresponding values for `CC(C)c1ncc(CN(C)C(=O)N[C@H](C(=O)N[C@@H](Cc2ccccc2)[C@H](O)CN2C[C@H]3CCCC[C@H]3C[C@H]2C(=O)NC(C)(C)C)C(C)C)s1` [Example 31, N′-[(1S)-1-[[[(1S,2 R)-3-[(3S)-3-[[(1,1-Dimethylethyl)amino]carbonyl](4aα,8aα)-octahydro-2-isoquinolinyl]-2-hydroxy-1-(phenylmethyl)propyl]amino]carbonyl]-2-methylpropyl]-N-methyl-N-[2-(1-methylethyl)-5-thiazolylmethyl]urea] are 48%, 58 nM and 17200 nM.
`CC(C)c1nc(CN(C)C(=O)N[C@H](C(=O)N[C@@H](Cc2ccccc2)[C@H](O)CN2CC[C@@H](OCc3cncs3)C[C@H]2C(=O)NC(C)(C)C)C(C)C)cs1` [Example 32, N′-[(1S)-1-[[[(1S,2R)-3-[(2S,4R)-2-[[(1,1-Dimethylethyl)amino]carbonyl]-4-(5-thiazolylmethoxy)-1-piperidinyl]-2-hydroxy-1-(phenylmethyl)propyl]amino]carbonyl]-2-methylpropyl]-N-methyl-N-[2-(1-methylethyl)-4-thiazolylmethyl]urea]: the inhibition at 0.0005 µM at HIV-1 protease came to 66%. Besides, in the series on HIV (setting [2]), the EC50 was determined as 15 nM. In addition, the CC50 in series [1] was found to be 64100 nM.
